According to patent US5840696A (priority 1997, dated 1998):

What was measured:
[1] = system: constitutive nitric oxide synthase (cNOS); assay: influence of L-NAME on urine flow rate responses in conscious rats; settings: L-NAME 30 mg/Kg i.v., 45 min before infusion
[2] = system: conscious Sprague-Dawley rats; assay: intracerebroventricular (i.c.v.) injection in conscious rats: cardiovascular and renal responses; format: in vivo, rat
Protocol: (§1) Abbreviations are HR, heart rate; MAP, mean arterial pressure; V, urine flow rate; and UNa V, urinary sodium excretion. Statistical significance within each group was determined by a repeated measures analysis of variance followed by a Bonferroni multiple comparisons test; asterisks (a, b, or c) denote a significant change (p<0.05) from control within each group.
(§2) Anesthetized male Sprague-Dawley rats (275-300 g, Sprague-Dawley, Inc., Indianapolis, Ind.) were implanted with chronic arterial and venous cannulas and a bladder catheter in accordance with previously published methods (10, 12). For experiments in which drugs were administered i.c.v., a stainless steel cannula was stereotaxically implanted into the right lateral ventricle of rats under anesthesia at least 5-7 days prior to experimentation (11). On the morning of the study rats were placed in a rat holder which permits forward and backward movement and allows for collection of urine from the bladder catheter. Conscious rats were then infused i.v. with isotonic saline (50 μl/min) for the duration of the experiment. The arterial cannulae was then flushed and attached to a pressure transducer (Statham P23Db) and the urinary bladder catheter led to a collection beaker. After equilibration and stabilization of urine flow rate and urinary sodium excretion (approximately 2-3 hours) the experimental protocol described in each figure legend commenced. Intravenous and i.c.v. stock solutions of nociceptin and nor-binaltorphimine were prepared fresh in isotonic saline vehicle. […] Animal experimentation and care procedures were in accordance with the National Institutes of Health guidelines for the care and use of animals.

rat kidney = assay: site of infusion (right renal artery, suprarenal and infrarenal aorta, intravenous) and urine flow rate; format: in vivo; settings: direct right renal arterial administration
mice = settings: administration to mice, literature (4,5); cited from earlier work
[3] = system: conscious Sprague-Dawley rats; assay: i.v. bolus administration of 30 μg nociceptin in conscious rats; format: in vivo, rat; settings: i.v. bolus 30 μg
Protocol: as §1
Anesthetized male Sprague-Dawley rats (275-300 g, Sprague-Dawley, Inc., Indianapolis, Ind.) were implanted with chronic arterial and venous cannulas and a bladder catheter in accordance with previously published methods (10, 12). For experiments in which drugs were administered i.c.v., a stainless steel cannula was stereotaxically implanted into the right lateral ventricle of rats under anesthesia at least 5-7 days prior to experimentation (11). On the morning of the study rats were placed in a rat holder which permits forward and backward movement and allows for collection of urine from the bladder catheter. Conscious rats were then infused i.v. with isotonic saline (50 μl/min) for the duration of the experiment. The arterial cannulae was then flushed and attached to a pressure transducer (Statham P23Db) and the urinary bladder catheter led to a collection beaker. […]

[4] = system: isolated rat aortic vascular rings; assay: vasorelaxant response of isolated rat aortic rings in vitro precontracted with U46619
Protocol: Aortic rings were precontracted with U46619, a thromboxane A2 mimic.
Rat aortic rings in vitro (with intact endothelium) were precontracted with […], a thromboxane A2 mimic.
Male rats (250-350g) were anesthetized with pentobarbital sodium (30 mg/Kg i.p). The rat lungs were quickly removed and immersed in cold (4° C.) Krebs-Henseleit (K-H) solution (composition mM: NaCl 118, KCl 4.7, CaCl2 2.5, KH2 PO4 1.2, NaHCO3 25, MgSO4 1.2, and dextrose 10). Pulmonary arteries (PA) were isolated and excess fat and connective tissue were removed. Vessels were cut into rings of about 2.5-3 mm in length and were mounted in organ baths containing 5 ml K-H solution. Two stainless steel hooks were inserted into the lumen of the pulmonary artery (PA), one was fixed while the other was connected to a transducer. The tissue bath solution was maintained at 37° C. and bubbled with a 95% O2 -5%CO2 mixture. The pulmonary arteries were equilibrated for 90 min with three changes of K-H solution and an optimal tension of 1 gr. applied. Contractions were measured isometrically with a force displacement transducer (FTO3, Grass, USA) and were recorded on a Grass model 7 polygraph. The contractile ability of each ring was then examined by exposure to 60 mM KCl, then washed and allowed to dilate to baseline tension. […] The integrity of the endothelium was determined by obtaining a maximal vasorelaxant response to ACh. […]

[5] = system: systemic vascular bed of the anesthetized rat; settings: literature (18); cited from earlier work
[6] = system: conscious Sprague-Dawley rats; assay: intravenous infusion of nociceptin in conscious chronically instrumented rats: cardiovascular and renal responses; format: in vivo, rat; settings: i.v. infusion 20 μg/kg/min
Protocol: as §2
Statistical significance was determined by a repeated measure analysis of variance followed by a Bonferroni multiple comparisons test; asterisks denote a significant difference (p<0.05) from the respective group control.

[7] = system: isolated feline renal, femoral, mesenteric and carotid arterial rings; assay: isolated feline arterial rings (with endothelium) precontracted with phenylephrine
Protocol: Additional studies were performed in vitro to determine the contribution of changes in regional hemodynamics in the systemic vasodilator response to nociceptin.

## CC(C)C[C@H](NC(=O)[C@H](CCCCN)NC(=O)[C@H](CCCN=C(N)N)NC(=O)[C@H](C)NC(=O)[C@H](CO)NC(=O)[C@H](CCCCN)NC(=O)[C@H](CCCN=C(N)N)NC(=O)[C@H](C)NC(=O)CNC(=O)[C@@H](NC(=O)[C@H](Cc1ccccc1)NC(=O)CNC(=O)CNC(=O)[C@@H](N)Cc1ccccc1)[C@@H](C)O)C(=O)N[C@@H](C)C(=O)N[C@@H](CC(N)=O)C(=O)N[C@@H](CCC(N)=O)C(=O)O [nociceptin]
[1]
  increase in urine flow rate (V) in response to i.v. infusion after L-NAME: significantly inhibited
[2]; consecutive i.c.v. injection of the same dose (1, 10 or 30 μg)
  tachyphylaxis to the cardiovascular and renal responses: did not develop
[2]; i.c.v. 1 μg
  time of peak diuresis: 30 min
[2]; i.c.v. 10 μg
  time of peak diuresis: 40 min
[2]; i.c.v. 10 μg, naive conscious rats
  renal response (urine flow rate and urinary sodium excretion): concurrent diuretic and antinatriuretic response
[2]; i.c.v. 10 μg, p<0.05 at time 20 min
  onset of diuresis compared with dynorphin A: significantly delayed
[2]; i.c.v. 1, 10 or 30 μg
  diuretic response: profound diuretic response
[2]; i.c.v. 1, 10 or 30 μg, versus group control
  heart rate, mean arterial pressure and urinary sodium excretion: significant (p<0.05) decreases
[2]; i.c.v., all doses
  duration of bradycardia: approximately 30 minutes
  duration of hypotensive response: ~40 min
[2]; i.c.v., all doses (1, 10, 30 μg)
  onset of bradycardia and hypotensive response: 1 to 3 min
[2]; i.c.v., preliminary studies
  minimum effective i.c.v. dose to evoke a change in urine flow rate and urinary sodium excretion: 1 µg
Rat kidney
  left or right ureteral flow rate: did not increase
mice
  response to painful stimuli: hypersensitivity to painful stimuli
[3]
  cardiovascular and renal parameters: did not alter any cardiovascular or renal parameter
[4]; endothelial cell removal, methylene blue, L-NAME, L-NIO
  aortic vasorelaxant response in the presence of inhibitors of nitric oxide formation and function: blocked
[4]; meclofenamate
  vasorelaxant response after cycloxygenase blockade: lack of an inhibitory effect
[5]
  decrease of systemic arterial pressure, sensitivity to naloxone: naloxone-insensitive
[6]
  behavioral or sedative effects: did not produce any behavioral or sedative effects
  duration of renal responses: approximately 70 min
  heart rate: did not alter heart rate
  time of peak changes in renal responses after start of infusion: approximately 40 min
[6]; conscious rats
  urinary sodium excretion: decrease
  urine flow rate: profound increase
[6]; sustained throughout infusion
  mean arterial pressure: slight, but statistically significant decrease
[7]
  relaxation of arterial rings: ability to relax
